Data reported in patent US10392363B2, “Methods for treating protozoan infections” (Neoculi Pty Ltd., priority 2014, dated 2019).

Tests used:
[1] = test system: Trypanosoma cruzi (Tulahuen trypomastigotes expressing β-galactosidase, in L6 cells); assay: In vitro T. cruzi assay for determination of IC50; type: cell-based; conditions: Trypanosoma cruzi, TULAHUEN, L6; 96 h incubation
How it was run: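 Tulahuen T. cruzi expressing β-galactosidase, grown in L6 cells; compounds tested as seven-point serial dilutions in triplicate after removing extracellular trypomastigotes.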

[2] = test system: Leishmania donovani promastigotes; assay: L. donovani screening (Alamarblue); type: cell-based
Method: L. donovani Screening. Procyclic promastigotes from exponentially growing cultures maintained in DME-L+ Bob additions were used for all assays. Compounds were initially screened for activity at 10 μM. Compounds were diluted in culture media to a […] in 96 well plates. Promastigotes were diluted to a density of ˜8×10^5 cells/ml then added to the assay plate resulting in a final cell density of 4×10^5 cells/ml. in 96 well plates. Cells were incubated for 96 hrs at 27° C. before the addition of Alamarblue (thermofisher). Fluorescence was read at excitation 530 nm and Emission 590 nm. […] Compounds were serially diluted in thirds, in a 96 well plate, in cell growth media so that concentrations ranged from 0.005 to 10 μM and promastigotes added to a final concentration of 1×10^6 cells/ml. Cells were incubated at 27° C. for 72 hours before the addition of alamar blue. Fluorescence was measured as above.

[3] = Release from Formulation B (Franz diffusion cells); type: physicochemical; conditions: absolute ethanol receptor, 32° C., up to 24 hours
Method: Franz diffusion cells were utilized to quantify the release rate of NCL 812 and NCL099 from its topical formulations. Five milliliters of absolute ethanol, which was chosen as the desired release medium, was loaded into the receptor chamber. Temperature of the receptor fluid was kept constant, at 32±1° C. using a water jacket. Acetyl cellulose membranes, with pore size of 0.45 μm (Pall Corporation) was selected and placed between donor and receptor chamber. Followed by that, a number of test samples (Formulation B) was loaded into the donor chamber. One milliliter of receptor fluid was collected at regular time intervals of 0.25, 0.50, 0.75, 1, 2, 3, 4, 5, 6, 7, 8 and 24 hours through the sampling port. One milliliter of fresh absolute ethanol was immediately returned to the receptor chamber. UV-HPLC was utilized to analyse the content of the receptor fluids attained.

[4] = test system: Giardia duodenalis (strain WB trophozoites); assay: Giardia adherence assay; type: cell-based; conditions: exposed for 5 hours
Method: Giardia strain WB was grown until confluent (grown and maintained in TYI-S-33 medium with 10% foetal bovine serum). For the assay, media of a confluent culture was replaced with fresh TYI-S-33 medium. Cultures were then cold shocked (on ice) for 40 minutes to detach trophozoites. The cell density of the cultures was adjusted to 1×10^6 cells/ml and 1 ml was added to each well of a 24 well plate already containing 1 ml of diluted compounds (see below). […] After incubation the coverslips were removed, air-dried and stained with Diff-Quik (a Romanowski stain variant). Coverslips were mounted onto glass slides using polymount. Images at 10× magnification were taken at 5 random locations per coverslip. […] Stock solutions of compounds were prepared in DMSO at 25.6 mg/ml. Compounds were diluted 1:100 in TYI-S-33 medium. A 1:2 serial dilution was then performed in TYI-S-33 medium in 24 well plates.

Structure (SMILES): N=C(N/N=C/c1ccc(Cl)cc1)N/N=C/c1ccc(Cl)cc1 [NCL812, 1,3-bis[(E)-(4-chlorophenyl)methyleneamino]guanidine]
- IC50 [1]: > 11 µM
- L. donovani SI ([2]; GI50 of macrophages divided by IC50 of parasites): 5.12
- IC50 ([2]; Leishmania donovani, 72 h): 2.9 ± 0.24 µM
- release profile from Formulation B [3]: acceptable release profile
- number of adherent trophozoites [4]: significant decreases
